From patent US7833736B2, “Protein markers of responsiveness to type III receptor tyrosine kinase inhibitors” (Cell Signaling Technology, Inc., priority 2006, dated 2010) come the findings set out here.

The test system of the experiment is human tumor xenografts. Kind of experiment: Growth of human tumor xenografts under OSI-930 (growth curves of xenograft tumor mass). It is filed as in vivo, mice. In general terms: A xenograft is tissue or cells of one species grown in another, often human tumour cells in immunodeficient mice.

As for `O=C(Nc1ccc(OC(F)(F)F)cc1)c1sccc1NCc1ccnc2ccccc12` [OSI-930], the “response of xenograft tumor growth to the drug (growth curves of tumor mass)” value is, setting by setting: (five of the cell line xenograft models, data not shown) “resistant”; (the other seven cell line xenograft models) “significant inhibition of tumor growth”.
